Results as given in the OPERA property sets (Mansouri et al. 2018).

Compound | melting point | boiling point | further results
CCOC(=O)NN | 46 °C | – | –
C=C(C)C(C)Cl (configuration not stated) | – | 94 °C | –
OCc1ccccc1I | 92 °C | – | –
C[Si](C)(C)C#C[Si](C)(C)C | 26 °C | 134 °C | –
COc1cccc(O)c1 | – | 244 °C | log10 Henry constant (atm·m³/mol): -7.24; log10 Koc (L/kg): 1.5; log10 vapour pressure (mmHg): -1.71; ready biodegradability: readily biodegradable
CC(C)[C@H](C)CC[C@@H](C)[C@H]1CC[C@H]2[C@@H]3CC=C4C[C@@H](O)CC[C@]4(C)[C@H]3CC[C@]12C | 158 °C | – | –
COc1ccc(C(=O)Cc2c(CCN(C)C)cc3c(c2OC)OCO3)c(C(=O)O)c1OC | 138 °C | – | –
CS(=O)(=O)NC(=O)c1cc(Oc2ccc(C(F)(F)F)cc2Cl)ccc1[N+](=O)[O-] | 220 °C | – | log10 Koc (L/kg): 1.78
N#Cc1ccc(Cl)cc1 | 95 °C | 223 °C | –
Clc1cc(Cl)c(Cl)c(-c2c(Cl)ccc(Cl)c2Cl)c1 | – | – | log10 Henry constant (atm·m³/mol): -4.25; log10 biotransformation half-life (days) (fish): 2.32
ClC1=C(Cl)C2(Cl)C3C(Cl)C(Cl)C(Cl)C3C1(Cl)C2(Cl)Cl (configuration not stated) | – | – | log10 Koa: 9.43; log10 vapour pressure (mmHg): -6.02
O=C(NO)c1ccccc1 | 128 °C | – | –
O=C1C(O)=C(Cl)C(=O)c2ccccc21 | 216 °C | – | –
CCCC1CCCCC1C (configuration not stated) | – | 176 °C | –
O=[N+]([O-])c1c(Cl)ccc2ccccc12 | 99.5 °C | – | –
Cc1ccc(C)c(O)c1 | 74.8 °C | 211 °C | log10 Henry constant (atm·m³/mol): -5.95; log10 vapour pressure (mmHg): -0.807; ready biodegradability: not readily biodegradable
Cc1cccc(N)c1 | -31.2 °C | 203 °C | log10 Henry constant (atm·m³/mol): -5.78; log10 Koc (L/kg): 1.53; log10 vapour pressure (mmHg): -0.519; ready biodegradability: not readily biodegradable
CCC(C)(C)I | – | 124 °C | –
CCCCOCOCCCC | -58.1 °C | 179 °C | –
O=S(=O)(O)c1ccc(Cl)cc1 | 67 °C | – | ready biodegradability: readily biodegradable

Compound | melting point | boiling point | further results
C=CCOC(=O)CCC | -80 °C | 142 °C | –
NCCCCCN | 9 °C | 179 °C | –
CSc1nc2ccccc2s1 | 44 °C | – | –
CCN(CC)CN(CC)CC | – | 166 °C | –
Cc1c(N)c(=O)n(-c2ccccc2)n1C | 109 °C | – | –
CCCCCCCC(=O)OCCCC | -42.9 °C | 240 °C | –
Oc1ccc(Cl)cc1O | 90.5 °C | – | ready biodegradability: not readily biodegradable
CC(=O)OCCCCOC(C)=O | 12 °C | 229 °C | –
C#C[C@]1(O)CC[C@H]2[C@@H]3CCc4cc(O)ccc4[C@H]3[C@@H](OC)C[C@@]21C | 280 °C | – | –
CNC(=O)Oc1ccccc1C(C)C | 94 °C | – | log10 vapour pressure (mmHg): -4.68; ready biodegradability: not readily biodegradable; log10 BCF (fish): 0.95; log10 biotransformation half-life (days) (fish): -1.25
c1ccncc1 | -41.6 °C | 115 °C | log10 Henry constant (atm·m³/mol): -4.96; log10 Koc (L/kg): 1.6; log10 vapour pressure (mmHg): 1.32; ready biodegradability: readily biodegradable
O=C(O)CCCCC[N+](=O)[O-] | – | – | ready biodegradability: readily biodegradable
O=NN1CN2CN(C1)CN(N=O)C2 | 204 °C | – | ready biodegradability: readily biodegradable
Cc1ccc(CC(=O)O)cc1 | 93 °C | 265 °C | –
CCNCCN | – | 129 °C | –
O=C1Cc2cccc3cccc1c23 | 121 °C | – | –
CCC(C)(C)OC | – | 86.3 °C | log10 Henry constant (atm·m³/mol): -2.88; log10 vapour pressure (mmHg): 1.88
CCC(C)C(C)CC(C)C (configuration not stated) | – | 156 °C | –
CCN(CC)c1nc(C)cc(OP(=S)(OC)OC)n1 | 15 °C | – | log10 Koc (L/kg): 3; log10 vapour pressure (mmHg): -4.82
CCCCCS | -75.7 °C | 127 °C | log10 vapour pressure (mmHg): 1.14

Compound | melting point | boiling point | further results
CCSC(C)C | -122 °C | 108 °C | –
CCOC(=O)CC(C)=O | -45 °C | 181 °C | log10 vapour pressure (mmHg): -0.108
CCCCCCCCC(=O)OCC | -36.7 °C | 227 °C | –
C[Si](C)(C)O[Si](C)(O[Si](C)(C)C)O[Si](C)(C)C | – | – | log10 vapour pressure (mmHg): -1.4
CN1CCCC1=O | -24 °C | 202 °C | log10 Henry constant (atm·m³/mol): -8.49; log10 vapour pressure (mmHg): -0.462; ready biodegradability: readily biodegradable
O=C(O)c1ccc(F)c(F)c1F | 141 °C | – | –
ClC(Br)(Br)Br | 55 °C | 158 °C | –
CCCCCCCCCC(Br)C(=O)O (configuration not stated) | 10 °C | – | –
Nc1ccc2ccccc2c1 | 113 °C | 300 °C | log10 Henry constant (atm·m³/mol): -7.09; log10 vapour pressure (mmHg): -3.59; ready biodegradability: readily biodegradable
CC(O)C(C)(C)CO (configuration not stated) | – | 208 °C | –
CC(C)(C)CC(C)(C)c1ccc(OCCOCC[N+](C)(C)Cc2ccccc2)cc1 | – | – | ready biodegradability: not readily biodegradable
CCOC(=O)C(C)(C)C | -89.5 °C | 118 °C | log10 vapour pressure (mmHg): 1.25
CC(=O)OCc1cnc(N)c(C#N)n1 | – | – | ready biodegradability: readily biodegradable
Cc1cccc(C)c1Cl | -35 °C | 186 °C | –
Oc1ccc2ccccc2c1/N=N/c1ccccc1 | 134 °C | – | log10 Koc (L/kg): 3.58
FC1(F)OC1(F)F | -118 °C | -63.5 °C | –
CN1C(=O)CCC1=O | 71 °C | 234 °C | –
O=C(Nc1ccccc1)OCC1(COC(=O)Nc2ccccc2)CCCC1 | 152 °C | – | –
C#CC#C | -36.4 °C | 10.3 °C | log10 vapour pressure (mmHg): 3.12
